#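 48-hour exposure; five concentrations; linearly interpolated endpoints. GI50 = concentration required for 50% inhibition of growth. At the TGI there is no net growth.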
# Assays:
# Assay in all cases: NCI anticancer screen, dose series, 48 h
# [1] = system: 786-0 renal
# [2] = system: A498 renal
# [3] = system: A549 NSCLC
# [4] = system: ACHN renal
# [5] = system: BT-549 breast
# [6] = system: CAKI-1 renal
# [7] = system: CCRF-CEM leukemia
# [8] = system: COLO 205 colon
# [9] = system: DU-145 prostate
# [10] = system: EKVX NSCLC
# [11] = system: HCC-2998 colon
# [12] = system: HCT-15 colon
# [13] = system: HL-60(TB) leukemia
# [14] = system: HOP-62 NSCLC
# [15] = system: HOP-92 NSCLC
# [16] = system: HS 578T breast
# [17] = system: HT29 colon
# [18] = system: IGROV1 ovarian
# [19] = system: K-562 leukemia
# [20] = system: KM12 colon
# [21] = system: LOX IMVI melanoma
# [22] = system: M14 melanoma
# [23] = system: MALME-3M melanoma
# [24] = system: MCF7 breast
# [25] = system: MDA-MB-231 breast
# [26] = system: MDA-MB-435
# [27] = system: MDA-MB-468 breast
# [28] = system: MOLT-4 leukemia
# [29] = system: NCI-H226 lung
# [30] = system: NCI-H23 lung
# [31] = system: NCI-H460 lung
# [32] = system: NCI-H522 lung
# [33] = system: NCI/ADR-RES ovarian
# [34] = system: OVCAR-3 ovarian
# [35] = system: OVCAR-4 ovarian
# [36] = system: OVCAR-5 ovarian
# [37] = system: OVCAR-8 ovarian
# [38] = system: PC-3 prostate
# [39] = system: RPMI-8226 leukemia
# [40] = system: RXF 393 renal
# [41] = system: SF-268 CNS
# [42] = system: SF-295 CNS
# [43] = system: SF-539 CNS
# [44] = system: SK-MEL-28 melanoma
# [45] = system: SK-MEL-5 melanoma
# [46] = system: SK-OV-3 ovarian
# [47] = system: SN12C renal
# [48] = system: SNB-19 CNS
# [49] = system: SR leukemia
# [50] = system: SW-620 colon
# [51] = system: T-47D breast
# [52] = system: TK-10 renal
# [53] = system: U251 CNS
# [54] = system: UACC-257 melanoma
# [55] = system: UACC-62 melanoma
# [56] = system: UO-31 renal
smiles,measurement,setting,value
COc1ccc2nc(Cl)c(-c3cc(-c4ccccc4)nc(N)n3)cc2c1,GI50,[1],1.45 µM
same,TGI,[1],4.36 µM
same,GI50,[2],25.9 µM
same,TGI,[2],> 100 µM
same,GI50,[3],21.5 µM
same,TGI,[3],> 100 µM
same,GI50,[4],10.6 µM
same,TGI,[4],30.8 µM
same,GI50,[5],1.54 µM
same,TGI,[5],3.32 µM
same,GI50,[6],20.5 µM
same,TGI,[6],71.4 µM
same,GI50,[7],2.58 µM
same,TGI,[7],> 100 µM
same,GI50,[8],10.9 µM
same,TGI,[8],25.8 µM
same,GI50,[9],4.03 µM
same,TGI,[9],> 100 µM
same,GI50,[10],16.9 µM
same,TGI,[10],72.2 µM
same,GI50,[11],10.6 µM
same,TGI,[11],22.5 µM
same,GI50,[12],2.67 µM
same,TGI,[12],8.1 µM
same,GI50,[13],1.55 µM
same,TGI,[13],> 100 µM
same,GI50,[14],7.47 µM
same,TGI,[14],31.1 µM
same,GI50,[15],11.3 µM
same,TGI,[15],62 µM
same,GI50,[16],20.8 µM
same,TGI,[16],> 100 µM
same,GI50,[17],5.11 µM
same,TGI,[17],18.7 µM
same,GI50,[18],8.04 µM
same,TGI,[18],23.7 µM
same,GI50,[19],3.21 µM
same,TGI,[19],> 100 µM
same,GI50,[20],3.38 µM
same,TGI,[20],12.6 µM
same,GI50,[21],1.92 µM
same,TGI,[21],4.23 µM
same,GI50,[22],4.33 µM
same,TGI,[22],25.9 µM
same,GI50,[23],12.2 µM
same,TGI,[23],27.4 µM
same,GI50,[24],2.82 µM
same,TGI,[24],12.8 µM
same,GI50,[25],6.97 µM
same,TGI,[25],38.8 µM
same,GI50,[26],12.8 µM
same,TGI,[26],33 µM
same,GI50,[27],4 µM
same,TGI,[27],16.5 µM
same,GI50,[28],1.74 µM
same,TGI,[28],> 100 µM
same,GI50,[29],7.23 µM
same,TGI,[29],53.9 µM
same,GI50,[30],6.53 µM
same,TGI,[30],23.4 µM
same,GI50,[31],3.58 µM
same,TGI,[31],13.5 µM
same,GI50,[32],11.7 µM
same,TGI,[32],27.4 µM
same,GI50,[33],4.77 µM
same,TGI,[33],36 µM
same,GI50,[34],3.71 µM
same,TGI,[34],14.5 µM
same,GI50,[35],22.3 µM
same,TGI,[35],> 100 µM
same,GI50,[36],6.61 µM
same,TGI,[36],29.1 µM
same,GI50,[37],3.37 µM
same,TGI,[37],18.5 µM
same,GI50,[38],5.79 µM
same,TGI,[38],> 100 µM
same,GI50,[39],3.31 µM
same,TGI,[39],> 100 µM
same,GI50,[40],3.51 µM
same,TGI,[40],13.7 µM
same,GI50,[41],28.1 µM
same,TGI,[41],> 100 µM
same,GI50,[42],11.4 µM
same,TGI,[42],36.1 µM
same,GI50,[43],1.89 µM
same,TGI,[43],3.92 µM
same,GI50,[44],14.6 µM
same,TGI,[44],33.8 µM
same,GI50,[45],12.2 µM
same,TGI,[45],24.6 µM
same,GI50,[46],39.7 µM
same,TGI,[46],> 100 µM
same,GI50,[47],4.71 µM
same,TGI,[47],19.2 µM
same,GI50,[48],7.62 µM
same,TGI,[48],23.5 µM
same,GI50,[49],0.605 µM
same,TGI,[49],> 100 µM
same,GI50,[50],2.8 µM
same,TGI,[50],8.76 µM
same,GI50,[51],7.94 µM
same,TGI,[51],> 100 µM
same,GI50,[52],22.1 µM
same,TGI,[52],90.2 µM
same,GI50,[53],3.26 µM
same,TGI,[53],13.2 µM
same,GI50,[54],19 µM
same,TGI,[54],66.5 µM
same,GI50,[55],11 µM
same,TGI,[55],24 µM
same,GI50,[56],4.3 µM
same,TGI,[56],17.6 µM

# Source: PubChem BioAssay (NCI)
